The target in this experiment is T1, HIV-1 protease (Human immunodeficiency virus type 1 group M subtype B, UniProt P04585).
T1 construct: The protease (or proteinase), consisting of only 99 amino acids, is among the smallest enzymes known
The experiment can be described thus: In vitro HIV protease inhibitory assay (HIV Protease FITC Assay). In kind it is biochemical. Conditions: for inhibition at 1 µM / inhibition at 10 µM / inhibition at 100 µM / inhibition at 0.123 µM / inhibition at 0.37 µM / inhibition at 1.1 µM / inhibition at 3.3 µM / inhibition at 30 µM: read-out: HIV-1 Protease % Inhib. In a few lines: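 Percent inhibition was read as fluorescence after avidin-bead capture and filtration separated FITC cleavage product from biotinylated substrate. Enzyme and substrate reacted 1 h, RT, dark, at pH 5.5 (0.1 M sodium acetate, 1.0 M NaCl, 0.05% NP-40).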

Where two headings read alike, the source gives them in different places.

`O=c1oc(C(CC2CC2)CC2CC2)cc(O)c1C(C1CCCCC1)C1CC1` (stereo not shown) [Example 92, 3-(Cyclohexyl-cyclopropyl-methyl)-6-(2-cyclopropyl-1-cyclopropylmethyl-ethyl)-4-hydroxy-pyran-2-one]: the inhibition at 1 µM (HIV-1 Dose 1.000 uM) is 38.3%. Moreover, under “HIV-1 Dose 10.000 uM”, the inhibition at 10 µM came to 80.9%. The inhibition at 100 µM (HIV-1 Dose 100.000 uM) worked out at 87.1%.
As for `CCC(CCCN1CCOCC1)c1cc(O)c(C(c2ccccc2)C2CC2)c(=O)o1` (stereo not shown) [Example 73, 3-(Cyclopropyl-phenyl-methyl)-6-(1-ethyl-4-morpholin-4-yl-butyl)-4-hydroxy-pyran-2-one], for the setting “HIV-1 Dose 0.123 uM”, the inhibition at 0.123 µM was less than 10%. The inhibition at 0.37 µM (HIV-1 Dose 0.370 uM) is less than 10%. Under “HIV-1 Dose 1.100 uM”, the inhibition at 1.1 µM was less than 10%. The inhibition at 3.3 µM (HIV-1 Dose 3.300 uM) was less than 10%. In addition, under “HIV-1 Dose 10.000 uM”, the inhibition at 10 µM was 28.9%. Further, the inhibition at 30 µM (HIV-1 Dose 30.000 uM) was 61.4%.
For `CCC(C1=C(O)CC(Cc2ccccc2)(c2ccccc2)OC1=O)c1ccccc1` (stereo not shown) [Example 169, 5,6-Dihydro-4-hydroxy-6-phenyl-6-(phenylmethyl)-3-(1-phenylpropyl)-2H-pyran-2-one], the inhibition at 0.123 µM was less than 10%, the inhibition at 0.37 µM is less than 10%, the inhibition at 1.1 µM is less than 10% and the inhibition at 3.3 µM was less than 10%. The inhibition at 10 µM turned out to be 33.2% and the inhibition at 30 µM worked out at 54.8%.
With `CCCC1(CCc2ccccc2)CC(O)=C(/C(=C/c2ccccc2)c2ccccc2)C(=O)O1` (stereo not shown) [Example 173, 3-(1,2-Diphenylethenyl)-5,6-dihydro-4-hydroxy-6-(2-phenylethyl)-6-propyl-, (E)-2H-pyran-2-one], where the note is “HIV-1 Dose 0.123 uM”, the inhibition at 0.123 µM is less than 10%. Under “HIV-1 Dose 0.370 uM”, the inhibition at 0.37 µM is less than 10%. For the same compound, the inhibition at 3.3 µM (HIV-1 Dose 3.300 uM) was less than 10%. Moreover, the inhibition at 10 µM (HIV-1 Dose 10.000 uM) amounted to 39.2%. Further, the inhibition at 30 µM (HIV-1 Dose 30.000 uM) is 58.8%.
Turning to `O=c1oc(CCCCc2ccccc2)cc(O)c1C(c1ccccc1)C1CC1` (stereo not shown) [Example 91, 3-(Cyclopropyl-phenyl-methyl)-4-hydroxy-6-(4-phenyl-butyl)-pyran-2-one], under “HIV-1 Dose 1.000 uM”, the inhibition at 1 µM is less than 10%. The inhibition at 10 µM (HIV-1 Dose 10.000 uM) worked out at 27.8%. Moreover, the inhibition at 100 µM (HIV-1 Dose 100.000 uM) amounted to 62%.
As a reminder, the IC50 is the concentration that inhibits the measured activity by half. A high value points to weaker potency in that assay. `CCC(CC)c1cc(O)c(C(c2ccccc2)C2CC2)c(=O)o1` (stereo not drawn) [Example 22, 3-(α-cyclopropylbenzyl)-6-(1-ethylpropyl)-4-hydroxy-2H-Pyran-2-one]: the IC50 worked out at 1800 nM. Besides, for the setting “HIV-1 Dose 1.000 uM”, the inhibition at 1 µM is 33.8%. Besides, the inhibition at 10 µM (HIV-1 Dose 10.000 uM) came out at 98.3%. For the setting “HIV-1 Dose 100.000 uM”, the inhibition at 100 µM is 108%.
Take `O=c1oc(CCc2ccc(Cl)cc2)cc(O)c1C(c1ccccc1)C1CC1` (stereo not drawn) [Example 166, 3-(α-cyclopropylbenzyl)-4-hydroxy-6-(p-chlorophenethyl)-2H-pyran-2-one]: under “HIV-1 Dose 0.123 uM”, the inhibition at 0.123 µM was less than 10%. For the same compound, the inhibition at 0.37 µM (HIV-1 Dose 0.370 uM) is less than 10%. Moreover, where the note is “HIV-1 Dose 1.100 uM”, the inhibition at 1.1 µM is less than 10%. The inhibition at 3.3 µM (HIV-1 Dose 3.300 uM) came out at 39.8%. Further, under “HIV-1 Dose 10.000 uM”, the inhibition at 10 µM came out at 62.3%. Further, the inhibition at 30 µM (HIV-1 Dose 30.000 uM) stood at 80.9%. Further, under “HIV-1 Dose 100.000 uM”, the inhibition at 100 µM is 97.8%.
In the case of `CCCC(CCC)c1cc(O)c(C(CC)c2ccccc2)c(=O)o1` (stereo not shown) [Example 40, 4-Hydroxy-3-(1-phenyl-propyl)-6-(1-propyl-butyl)-pyran-2-one], the inhibition at 1 µM (HIV-1 Dose 1.000 uM) was determined as 37.2%. For the same compound, the inhibition at 10 µM (HIV-1 Dose 10.000 uM) stood at 79.5%. Besides, where the note is “HIV-1 Dose 100.000 uM”, the inhibition at 100 µM came out at 80%.
As for “Dimethyl 3-[(4-hydroxy-2-oxo-6-phenyl-2H-1-pyran-3-yl)(4-nitrophenyl)methyl] - 1,3-propandioate [Example 28]”, the “HIV-1 Protease % Inhib” value is, setting by setting: (HIV-1 Dose 1.000 uM) less than 10%; (HIV-1 Dose 10.000 uM) 15.07%; (HIV-1 Dose 100.000 uM) 76.68%.

(Values after EP1203770A1 (priority 1992, dated 1994).)
